Assay results taken from patent publication US9006185B2, “Use of cell-permeable peptide inhibitors of the JNK signal transduction pathway for the treatment of various diseases” (Xigen Inflammation Ltd., priority 2008, dated 2015).
Entries after “also recorded” stand apart in the source; their conditions may differ.

Key:
C57BL/6 mice [1] = test: Bleomycin induced lung fibrosis; type: in vivo; details: for histology: inflammatory cells accumulation, fibrotic areas, loss of lung architecture: day 10
Description: (§1) In order to determine the activity of the exemplary all-D retro-inverso IB(s) peptide XG-102 (SEQ ID NO: 11) in the treatment of Chronic Obstructive Pulmonary Disease (COPD) XG-102 (SEQ ID NO: 11) is used in an animal model of Bleomycin induced acute lung inflammation and fibrosis. The protocol of bleomycin induced inflammation and fibrosis has been described before in the literature. The aim of the Experiment was to investigate the effect of XG-102 (SEQ ID NO: 11) by subcutaneous (s.c.) route on neutrophil recruitment in broncho alveolar lavage (BAL) and lung in bleomycin induced inflammation and fibrosis: • at 1 day after a single bleomycin administration (10 mg/kg) • and at day 10 with the development of fibrosis 1) Method and Experimental Approach • The test compound XG-102 (SEQ ID NO: 11) at two doses and vehicle control were given s.c. with a single intranasal administration of bleomycin and mice were analyzed after 1 and 10 days. The animals used in the model were 10 C57BL/6 mice (8 weeks old) per group. The experimental groups included vehicle, 0.001 mg/kg XG-102 (SEQ ID NO: 11) and 0.1 mg/kg XG-102 (SEQ ID NO: 11), and the treatment consisted of repeated sub-cutaneous administration of XG-102 (SEQ ID NO: 11), prior to bleomycin administration then every 3 days. Acute lung inflammation at 24 h was monitored by BAL lavage, cytology, cell counts, and lung myeloperoxidase activity. The effect of the compound was compared with vehicle controls. Lung fibrosis was assessed histologically using hematoxylin and eosin staining at day 10 after the single dose of bleomycin. […] 1.4) Cell Count and Determination • Total cell count was determined in BAL fluid using a Malassez hemocytometer. […] 1.5) TNF Measurement • TNF level in BALF was determined using ELISA assay kits (Mouse DuoSet, R&D system, Minneapolis, USA) according to manufacturer's instructions. […] 1.6) MPO-Measurement • MPO-levels were measured upon administration of XG-102. […]

TC-3 cells = test: Cellular import of fluorescein-labeled TAT and TAT-IB1(s) peptides; type: cell-based
Experimental: The ability of the L- and D-enantiomeric forms of TAT and TAT-IB1(s) peptides (“TAT-IB peptides”) to enter cells was evaluated. L-TAT, D-TAT, L-TAT-IB1(s), and D-TAT-IB1(s) peptides [SEQ ID NOs: 5, 6, 9 and 12, respectively] were labeled by N-terminal addition of a glycine residue conjugated to fluorescein. Labeled peptides (1 μM) were added to TC-3 cell cultures, which were maintained as described in Example 3. At predetermined times cells were washed with PBS and fixed for five minutes in ice-cold methanol-acetone (1:1) before being examined under a fluorescence microscope. Fluorescein-labeled BSA (1 μM, 12 moles/mole BSA) was used as a control.
Little to no signal was present at 48 hours.
Fluorescent signals from these all-D retro-inverso peptides were still very strong 1 week later, and the signal was only slightly diminished at 2 weeks post treatment.

C57BL/6 mice [2] = test: Bleomycin induced acute lung inflammation; type: in vivo
Description: as §1, with “bleomycin. 1.1) Bleomycin Administration • Bleomycin sulfate in saline (10 mg/kg body weight) from Belton Laboratories (Montrouge, France) or saline were given through the airways by nasal instillation in a volume of 40 μL under light ketamine-xylasine anesthesia. The groups for Bleomycin administration for both bleomycin induced inflammation and fibrosis included: Vehicle, 0.001 mg/kg XG-102 (SEQ ID NO: 11) and 0.1 mg/kg XG-102 (SEQ ID NO: 11). The route for bleomycin induced inflammation was subcutaneous (s.c.) route, and administration occurred as a single dose. The route for bleomycin induced fibrosis was subcutaneous (s.c.) route, and administration occurred 3 times in 10 days. 1.2) Bronchioalveolar Lavage Fluid (BAL F) • After incision of the trachea, a plastic cannula was inserted and airspaces were washed using 0.3 ml of PBS solution, heated to 37° C. The samples collected were dispatched in 2 fractions: the first one (1 ml corresponding to the 2 first lavages) was used for mediator measurement and the second one for the cell determination (4 ml). The first fraction was centrifuged (600 g for 10 min) and supernatant was fractionated and kept at −80° C. until mediator determination. The cell pellet was then resuspended in 0.4 ml sterile NaCl, 0.9%, and pooled with the second fraction and was used for cell counts.” for “bleomycin.”

Jurkat cells = test: PMA & ionomycin-induced cytokine production in Jurkat cells; type: cell-based

Description for db/db mice: i) Animals • A total of twenty (20) male db/db mice (8 weeks old) were obtained from Charles River (Germany). Upon arrival, animals were group housed (n=6-7/group) and offered regular rodent chow (Altromin standard #1324 chow; C. Petersen, Ringsted, Denmark) and water ad libitum unless otherwise stated. • The mice were housed under a 12:12 L/D cycle (lights on at 4:00 and lights off at 16:00) and in temperature and humidity controlled rooms.
ii) Groups and Randomization • On day 4, mice were randomized according to blood glucose level (fasted; blood glucose measured on Biosen S line analyzer (EKF diagnostic, Germany) to participate in one of the following drug treatment groups (n=6): • 1) Vehicle control, S.C. […] Drug purity: 95.28%, peptide content: 78.0%. All compounds were administered sub-cutaneously (s.c.) in a volume of 3 ml/kg. […] The formulations (concentrations of 0.33 and 3.3 mg/ml, corresponding to the doses of 1 and 10 mg/kg, respectively) were prepared according to the procedure detailed below. […] Aliquots are prepared for each treatment day and stored at approximately −80° C. Dilutions of this stock solution to the required concentrations are performed on each treatment day; • Storage of the stock solution: at approximately −80° C.; • Storage of the diluted preparations: at room temperature for 24 hours maximum. • Prior to solubilisation, the powder was stored at −20° C. The stability of the stock solution is 3 months at approximately −80° C.; the stability of the diluted formulations for animal dosing is 24 hours at room temperature. Unused diluted material could be stored for up to 7 days if kept at 4-8° C. c) Experimental Procedure
Following 8 days of acclimatization the mice were treated daily at 08.00 AM for 21 days by SC dosing 8 hours prior to lights out at 04.00 PM according to the outline groups.
i) Blood Glucose • Blood glucose was measured from 7 hour fasted animals 6 hours post dosing by collection of 10 μl blood samples from the tail-vein in hematocrite tubes and subsequent analysis on a Biosen s-line analyzer (EKF-diagnostic; Germany).
ii) Metabolic Cages • Groups 1+3: Mice were placed in metabolic cages for the recording of 24-hour food and water intake as well as 24-hour urine and feces production. Mice were stratified into two sub-teams of n=6-7 and subsequently the metabolic characterisation were performed on study days 71-72.
iii) Adipokine Panel • Groups 1+3: On three occasions (study days 57, 66 and 108) blood was collected from the tail vein using EDTA coated hematocrite tubes (100 μl). Following centrifugation of blood the plasma was collected and stored at −20° C. until measurement. Then, the following panel of adipokines/cytokines was determined using Luminex based 7-plex: leptin, resistin, MCP-1, PAI-1, TNF, insulin and interleukin-6 (IL-6).
iv) Termination • Groups 1+3 (day 111): The following organs were excised and weighed: inguinal subcutaneous fat, epididymal fat, retroperitoneal fat, brain, liver, kidney, spleen and heart. All organs described above were samples in 4% PFA for possible future histo-pathological examination. Also, pancreas (en bloc) was sampled for possible stereological and immunohistochemical analysis, and eyes were sampled for possible later analysis of retinopathy. Group 2 (day 28): No tissues or plasma were collected. c) Results

CC(C)C[C@@H](NC(=O)[C@@H](Cc1ccccc1)NC(=O)[C@H]1CCCN1C(=O)[C@@H](CCC(N)=O)NC(=O)[C@H](NC(=O)[C@H]1CCCN1C(=O)[C@@H](CCCNC(=N)N)NC(=O)[C@@H](CO)NC(=O)[C@@H](CCC(N)=O)NC(=O)[C@H](N)CC(=O)O)C(C)C)C(=O)N[C@H](CC(N)=O)C(=O)N[C@H](CC(C)C)C(=O)N[C@@H](C(=O)N[C@@H](C(=O)N1CCC[C@@H]1C(=O)N[C@H](CCCNC(=N)N)C(=O)N[C@H](CCCCN)C(=O)N1CCC[C@@H]1C(=O)N[C@H](CCCNC(=N)N)C(=O)N1CCC[C@@H]1C(=O)N1CCC[C@@H]1C(=O)N[C@H](CCCNC(=N)N)C(=O)N[C@H](CCCNC(=N)N)C(=O)N[C@H](CCCNC(=N)N)C(=O)N[C@H](CCC(N)=O)C(=O)N[C@H](CCCNC(=N)N)C(=O)N[C@H](CCCNC(=N)N)C(=O)N[C@H](CCCCN)C(=O)N[C@H](CCCCN)C(=O)N[C@H](CCCNC(=N)N)C(=O)NCC(=O)O)[C@H](C)O)[C@H](C)O [XG-102]
lymphocyte recruitment and total cells in bronchioalveolar lavage space (C57BL/6 mice [1]; 0.001 mg/kg s.c., 3 times in 10 days): reduced significantly the lymphocyte recruitment and the number of total cells recruited | histology: inflammatory cells accumulation, fibrotic areas, loss of lung architecture (C57BL/6 mice [1]; high dose 0.1 mg/kg): not with the high dose | histology: inflammatory cells accumulation, fibrotic areas, loss of lung architecture (C57BL/6 mice [1]; low dose 0.001 mg/kg, 0.001 mg/kg): A decrease of these parameters was observed; also recorded: attenuates the Bleomycin-induced fibrosis | entry into cells (fluorescence microscopy) (TC-3 cells): efficiently and rapidly (less than five minutes) entered cells | stability inside the cells (TC-3 cells): extremely stable inside the cells | fasting blood glucose (db/db mice; 1 mg/kg s.c., 28 days of dosing): no effect | body weight (db/db mice; 1 mg/kg, 28 days of dosing): no effect | fasting blood glucose, low plateau (db/db mice; 10 mg/kg s.c.): approximately 5 mmol/L | fasting blood glucose vs vehicle control (db/db mice; 10 mg/kg s.c. daily for 21 days, then wash-out to day 111): clear and significant (p<0.001) decrease in the level of fasting blood glucose | plasma levels of insulin, MCP-1, IL-6, tPAI-1, TNF (db/db mice; 10 mg/kg, day 57, 77 and 108): no significant effects | plasma resistin (db/db mice; 10 mg/kg, day 77 and 108): significantly higher | body weight vs vehicle control (db/db mice; 10 mg/kg, from day 28 to day 111): clear and significant (p<0.001) prevention of body weight increase | 24 hour food and water intake, urine and feces production (metabolic cages) (db/db mice; 10 mg/kg, study day 68): no significant effects | tissue weight of epididymal and retroperitoneal fat pads (db/db mice; 10 mg/kg, termination day 111): significant decrease of epididymal (p<0.05) and retroperitoneal (p<0.01) fat mass | tissue weight of kidney and liver (db/db mice; 10 mg/kg, termination day 111): significant decrease of kidney (p<0.05) and liver (p<0.01) mass | alertness, activity, sedation (db/db mice; mouse, in vivo): no signs of sedation | neutrophil recruitment and other cell types in bronchioalveolar space (C57BL/6 mice [2]; 0.001 mg/kg s.c., single dose, 1 day): has no effect on neutrophil recruitment or other cell types | neutrophil recruitment and total cells in bronchioalveolar lavage space (C57BL/6 mice [2]; 0.1 mg/kg s.c., single dose, 1 day): reduces significantly the neutrophil recruitment and the number of total cells recruited | histology, inflammatory cell accumulation (C57BL/6 mice [2]; acute inflammation study): a decrease of the inflammatory cell accumulation in the peribronchial space | MPO levels in the lung (C57BL/6 mice [2]; s.c., MPO not significantly induced after bleomycin): only little effect on the MPO levels in the lung; also recorded: no effect on the MPO levels in the lung | TNF level in BALF (C57BL/6 mice [2]; s.c., TNF levels very low after BLM): a trend to reduction of the TNF level in BALF | PMA & ionomycin-induced IFNg, IL-6 and IL-2 production (Jurkat cells): inhibits cytokine release in both myeloid and lymphoid cell lines
